# Experimental data reported in patent US9656959B2, “Substituted pyridines as sodium channel blockers” (Purdue Pharma L.P., priority 2010, dated 2017).
# Target: human Nav1.7 (Homo sapiens (Human), UniProt Q15858)
# Experiment: FLIPR or FLIPR TETRA sodium dye assay with KCl and test article pre-incubation
# Type: cell-based
# Conditions: read-out: Nav1.7 Activity (μM) FLIPR assay IC50 (μM) ± SEM
# human Nav1.7, sequence (Q15858 with tags, fused parts or gaps limits assumed): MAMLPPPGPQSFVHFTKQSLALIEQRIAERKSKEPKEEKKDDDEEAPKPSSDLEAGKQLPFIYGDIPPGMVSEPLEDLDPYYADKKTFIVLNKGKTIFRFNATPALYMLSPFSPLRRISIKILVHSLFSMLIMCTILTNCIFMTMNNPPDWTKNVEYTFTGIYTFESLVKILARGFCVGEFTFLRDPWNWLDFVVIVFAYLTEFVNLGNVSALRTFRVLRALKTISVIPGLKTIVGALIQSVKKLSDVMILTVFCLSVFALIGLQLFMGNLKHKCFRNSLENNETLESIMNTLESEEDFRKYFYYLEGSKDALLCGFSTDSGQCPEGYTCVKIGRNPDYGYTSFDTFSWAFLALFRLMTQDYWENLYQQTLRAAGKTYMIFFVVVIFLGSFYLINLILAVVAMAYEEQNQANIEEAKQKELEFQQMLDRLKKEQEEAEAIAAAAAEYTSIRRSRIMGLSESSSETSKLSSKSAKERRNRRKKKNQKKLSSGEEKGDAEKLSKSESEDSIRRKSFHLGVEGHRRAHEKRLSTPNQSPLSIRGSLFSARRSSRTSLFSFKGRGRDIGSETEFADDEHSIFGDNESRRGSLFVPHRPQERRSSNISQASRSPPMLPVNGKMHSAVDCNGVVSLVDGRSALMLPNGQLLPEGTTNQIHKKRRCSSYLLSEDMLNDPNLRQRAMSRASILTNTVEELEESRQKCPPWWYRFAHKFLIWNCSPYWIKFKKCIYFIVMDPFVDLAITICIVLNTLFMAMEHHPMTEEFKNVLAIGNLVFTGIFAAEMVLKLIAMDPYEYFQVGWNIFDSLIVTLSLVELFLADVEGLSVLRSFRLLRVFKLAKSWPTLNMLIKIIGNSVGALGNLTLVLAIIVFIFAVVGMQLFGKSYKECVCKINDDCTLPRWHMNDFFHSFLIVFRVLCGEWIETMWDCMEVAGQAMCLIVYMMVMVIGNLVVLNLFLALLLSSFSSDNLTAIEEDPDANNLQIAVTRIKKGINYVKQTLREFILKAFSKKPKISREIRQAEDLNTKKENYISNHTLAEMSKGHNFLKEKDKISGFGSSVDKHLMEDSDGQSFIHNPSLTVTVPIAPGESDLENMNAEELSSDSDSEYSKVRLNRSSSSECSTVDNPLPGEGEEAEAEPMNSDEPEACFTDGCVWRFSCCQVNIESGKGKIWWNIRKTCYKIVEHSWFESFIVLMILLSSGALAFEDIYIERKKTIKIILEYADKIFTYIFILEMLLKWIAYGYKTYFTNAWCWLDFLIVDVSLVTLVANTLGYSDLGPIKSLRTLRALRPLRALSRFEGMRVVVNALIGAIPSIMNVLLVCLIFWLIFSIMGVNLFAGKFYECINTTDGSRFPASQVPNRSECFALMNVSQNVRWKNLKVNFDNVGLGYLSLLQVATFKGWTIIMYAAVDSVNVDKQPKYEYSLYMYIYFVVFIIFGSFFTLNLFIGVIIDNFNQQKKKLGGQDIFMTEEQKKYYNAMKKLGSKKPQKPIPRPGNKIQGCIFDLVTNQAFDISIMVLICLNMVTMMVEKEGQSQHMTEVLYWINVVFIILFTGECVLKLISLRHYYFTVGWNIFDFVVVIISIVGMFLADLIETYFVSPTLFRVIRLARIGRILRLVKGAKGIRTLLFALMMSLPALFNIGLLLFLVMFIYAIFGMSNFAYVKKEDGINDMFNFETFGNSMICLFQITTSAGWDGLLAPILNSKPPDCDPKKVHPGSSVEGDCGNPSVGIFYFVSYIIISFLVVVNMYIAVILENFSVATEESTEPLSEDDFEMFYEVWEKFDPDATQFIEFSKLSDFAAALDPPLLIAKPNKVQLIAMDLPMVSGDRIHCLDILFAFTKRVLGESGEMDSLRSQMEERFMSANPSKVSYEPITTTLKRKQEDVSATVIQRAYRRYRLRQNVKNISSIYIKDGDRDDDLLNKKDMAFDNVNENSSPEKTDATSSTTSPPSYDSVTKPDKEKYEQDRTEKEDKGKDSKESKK
row,Structure (SMILES),IC50
1,"CC(C)C[C@H](NC(=O)C1CC1)C(=O)Nc1cc([C@H](O)CO)cc(-c2ccc(Oc3ccc(F)cc3)cc2)n1 [Compound 44, N-((S)-1-((4-((S)-1,2-dihydroxyethyl)-6-(4-(4-fluorophenoxy)phenyl)pyridin-2-yl)amino)-4-methyl-1-oxopentan-2-yl)cyclopropanecarboxamide]",0.059 ± 0.12 µM
2,"Cn1cnc(S(=O)(=O)Nc2cccc(-c3ccc(Oc4ccc(F)cc4)cc3)n2)c1 [Compound 29, N-(6-(4-(4-fluorophenoxy)phenyl)pyridin-2-yl)-1-methyl-1H-imidazole-4-sulfonamide]",0.32 ± 0.05 µM
3,"Cc1cc(C(=O)N[C@@H](CO)C(=O)Nc2cccc(-c3ccc(Oc4ccc(F)cc4)cc3)n2)no1 [Compound 58, 5-Methyl-isoxazole-3-carboxylic acid ((S)-1-{6-[4-(4-fluoro-phenoxy)-phenyl]-pyridin-2-ylcarbamoyl}-2-hydroxy-ethyl)-amide]",0.11 ± 0.04 µM
4,"O=C1NCCN1CCNc1cc(Cl)cc(-c2ccc(Oc3ccc(F)cc3)cc2)n1 [Compound 64, 1-(2-((4-chloro-6-(4-(4-fluorophenoxy)phenyl)pyridin-2-yl)amino)ethyl)imidazolidin-2-one]",0.12 ± 0.01 µM
5,"Cn1cnc(C[C@H](NC(=O)C(C)(C)C)C(=O)Nc2cccc(-c3ccc(Oc4ccc(F)cc4)cc3)n2)c1 [Compound 83, (S)-N-(6-(4-(4-fluorophenoxy)phenyl)pyridin-2-yl)-3-(1-methyl-1H-imidazol-4-yl)-2-pivalamidopropanamide]",0.02 ± 0.002 µM
6,"CC(=O)N[C@@H](Cc1cn(C)cn1)C(=O)Nc1cc(-c2ccc(Oc3ccc(F)cc3)cc2)ccn1 [Compound 84, (S)-2-acetamido-N-(4-(4-(4-fluorophenoxy)phenyl)pyridin-2-yl)-3-(1-methyl-1H-imidazol-4-yl)propanamide]",0.29 ± 0.025 µM
7,"NS(=O)(=O)Nc1cc(Cl)cc(-c2ccc(Oc3ccc(F)cc3)cc2)n1 [Compound 18, N-(4-chloro-6-(4-(4-fluorophenoxy)phenyl)pyridin-2-yl)sulfamide]",1.5 ± 0.3 µM
8,"Cn1cnc(C[C@H](NC(=O)CC(F)(F)F)C(=O)Nc2cccc(-c3ccc(Oc4ccc(F)cc4)cc3)n2)c1 [Compound 86, (S)-3,3,3-trifluoro-N-(1-((6-(4-(4-fluorophenoxy)phenyl)pyridin-2-yl)amino)-3-(1-methyl-1H-imidazol-4-yl)-1-oxopropan-2-yl)propanamide]",0.084 ± 0.007 µM
9,"CC(C)C(=O)N[C@@H](Cc1cn(C)cn1)C(=O)Nc1cccc(-c2ccc(Oc3ccc(F)cc3)cc2)n1 [Compound 82, (S)-N-(6-(4-(4-fluorophenoxy)phenyl)pyridin-2-yl)-2-isobutyramido-3-(1-methyl-1H-imidazol-4-yl)propanamide]",0.046 ± 0.005 µM
10,"CS(=O)(=O)Nc1cccc(-c2ccc(Oc3ccc(F)cc3)cc2)n1 [Compound 27, N-(6-(4-(4-fluorophenoxy)phenyl)pyridin-2-yl)methanesulfonamide]",0.34 ± 0.05 µM
11,"COCCOCC(=O)N[C@@H](CC(C)C)C(=O)Nc1cccc(-c2ccc(Oc3ccc(F)cc3)cc2)n1 [Compound 9, (S)-N-(6-(4-(4-fluorophenoxy)phenyl)pyridin-2-yl)-2-(2-(2-methoxyethoxy)acetamido)-4-methylpentanamide]",0.091 ± 0.02 µM
12,"CC(C)C[C@H](NC(=O)c1cccnc1)C(=O)Nc1cccc(-c2ccc(Oc3ccc(F)cc3)cc2)n1 [Compound 10, (S)-N-(1-((6-(4-(4-fluorophenoxy)phenyl)pyridin-2-yl)amino)-4-methyl-1-oxopentan-2-yl)nicotinamide]",0.091 ± 0.03 µM
13,"CC(C)(C)OC(=O)N[C@@H](CC(N)=O)C(=O)Nc1cccc(-c2ccc(Oc3ccc(F)cc3)cc2)n1 [Compound 41, (S)-tert-butyl (4-amino-1-((6-(4-(4-fluorophenoxy)phenyl)pyridin-2-yl)amino)-1,4-dioxobutan-2-yl)carbamate]",0.066 ± 0.008 µM
14,"Cn1cnc(C[C@H](NC(=O)Nc2cccc(-c3ccc(Oc4ccc(F)cc4)cc3)n2)C(N)=O)c1 [Compound 99, (S)-2-(3-(6-(4-(4-fluorophenoxy)phenyl)pyridin-2-yl)ureido)-3-(1-methyl-1H-imidazol-4-yl)propanamide]",0.667 ± 0.162 µM
15,"CC(C)C[C@H](NC(=O)CO)C(=O)Nc1cccc(-c2ccc(Oc3ccc(F)cc3)cc2)n1 [Compound 90, (S)-N-(6-(4-(4-fluorophenoxy)phenyl)pyridin-2-yl)-2-(2-hydroxyacetamido)-4-methylpentanamide]",0.07 ± 0.012 µM
16,"CC(C)(C)OC(=O)N[C@@H](CO)C(=O)Nc1cccc(-c2ccc(Oc3ccc(F)cc3)cc2)n1 [Compound 59, ((S)-1-{6-[4-(4-Fluoro-phenoxy)-phenyl]-pyridin-2-ylcarbamoyl}-2-hydroxy-ethyl)-carbamic acid tert-butyl ester]",0.31 ± 0.07 µM

row,Structure (SMILES),IC50
1,"O=C(Nc1cccc(-c2ccc(Oc3ccc(C(F)(F)F)cn3)cc2)n1)C(O)CO (stereo not shown) [Compound 96, 2,3-dihydroxy-N-(6-(4-((5-(trifluoromethyl)pyridin-2-yl)oxy)phenyl)pyridin-2-yl)propanamide]",> 20 µM
2,"CS(=O)(=O)Nc1cc([C@H](O)CO)cc(-c2ccc(Oc3ccc(F)cc3)cc2)n1 [Compound 24, (S)-N-(4-(1,2-dihydroxyethyl)-6-(4-(4-fluorophenoxy)phenyl)pyridin-2-yl)methanesulfonamide]",2.9 ± 0.8 µM
3,"NC(=O)N[C@@H](CO)C(=O)Nc1cccc(-c2ccc(Oc3ccc(F)cc3)cc2)n1 [Compound 61, (S)-N-{6-[4-(4-Fluoro-phenoxy)-phenyl]-pyridin-2-yl}-3-hydroxy-2-ureido-propionamide]",0.12 ± 0.05 µM
4,"CC(C)C[C@H](NC(=O)c1ccccn1)C(=O)Nc1cc([C@H](O)CO)cc(-c2ccc(Oc3ccc(F)cc3)cc2)n1 [Compound 45, N-((S)-1-((4-((S)-1,2-dihydroxyethyl)-6-(4-(4-fluorophenoxy)phenyl)pyridin-2-yl)amino)-4-methyl-1-oxopentan-2-yl)picolinamide]",0.3 ± 0.07 µM
5,"O=C(Nc1cccc(-c2ccc(Oc3ccc(C(F)(F)F)cc3)cc2)n1)C(O)CO (stereo not shown) [Compound 76, 2,3-dihydroxy-N-(6-(4-(4-(trifluoromethyl)phenoxy)phenyl)pyridin-2-yl)propanamide]",> 20 µM
6,"CC(=O)N1CCC(C(=O)N[C@@H](Cc2c[nH]cn2)C(=O)Nc2cccc(-c3ccc(Oc4ccc(F)cc4)cc3)n2)CC1 [Compound 34, (S)-1-acetyl-N-(1-((6-(4-(4-fluorophenoxy)phenyl)pyridin-2-yl)amino)-3-(1H-imidazol-4-yl)-1-oxopropan-2-yl)piperidine-4-carboxamide]",0.58 ± 0.05 µM
7,"CC(C)(O)C(=O)N[C@@H](Cc1c[nH]cn1)C(=O)Nc1cccc(-c2ccc(Oc3ccc(F)cc3)cc2)n1 [Compound 37, (S)-N-(6-(4-(4-fluorophenoxy)phenyl)pyridin-2-yl)-2-(2-hydroxy-2-methylpropanamido)-3-(1H-imidazol-4-yl)propanamide]",0.12 ± 0.03 µM
8,"O=C(N[C@@H](CO)C(=O)Nc1cccc(-c2ccc(Oc3ccc(F)cc3)cc2)n1)c1ccncc1 [Compound 57, N-((S)-1-{6-[4-(4-Fluoro-phenoxy)-phenyl]-pyridin-2-ylcarbamoyl}-2-hydroxy-ethyl)-isonicotinamide]",0.16 ± 0.03 µM
9,"CC(C)(C)OC(=O)N[C@@H](CC(=O)Nc1cccc(-c2ccc(Oc3ccc(F)cc3)cc2)n1)C(N)=O [Compound 40, (S)-tert-butyl (1-amino-4-((6-(4-(4-fluorophenoxy)phenyl)pyridin-2-yl)amino)-1,4-dioxobutan-2-yl)carbamate]",0.13 ± 0.03 µM
10,"O=S(=O)(Nc1cccc(-c2ccc(Oc3ccc(F)cc3)cc2)n1)C1CC1 [Compound 28, N-(6-(4-(4-fluorophenoxy)phenyl)pyridin-2-yl)cyclopropane Sulfonamide]",0.22 ± 0.07 µM
11,"CCC(=O)N[C@@H](Cc1cn(C)cn1)C(=O)Nc1cccc(-c2ccc(Oc3ccc(F)cc3)cc2)n1 [Compound 81, (S)-N-(6-(4-(4-fluorophenoxy)phenyl)pyridin-2-yl)-3-(1-methyl-1H-imidazol-4-yl)-2-propionamidopropanamide]",0.064 ± 0.01 µM
12,"O=C(CO)N[C@@H](Cc1c[nH]cn1)C(=O)Nc1cccc(-c2ccc(Oc3ccc(F)cc3)cc2)n1 [Compound 36, (S)-N-(6-(4-(4-fluorophenoxy)phenyl)pyridin-2-yl)-2-(2-hydroxyacetamido)-3-(1H-imidazol-4-yl)propanamide]",0.14 ± 0.01 µM
13,"N[C@@H](Cc1c[nH]cn1)C(=O)Nc1cccc(-c2ccc(Oc3ccc(F)cc3)cc2)n1 [Compound 31, (S)-2-amino-N-(6-(4-(4-fluorophenoxy)phenyl)pyridin-2-yl)-3-(1H-imidazol-4-yl)propanamide]",0.18 ± 0.02 µM
14,"O=C(N[C@@H](CO)C(=O)Nc1cccc(-c2ccc(Oc3ccc(F)cc3)cc2)n1)c1ccccn1 [Compound 54, Pyridine-2-carboxylic acid ((S)-1-{6-[4-(4-fluoro-phenoxy)-phenyl]-pyridin-2-ylcarbamoyl}-2-hydroxy-ethyl)-amide]",0.07 ± 0.02 µM
15,"CC(C)C[C@H](NC(=O)NC(C)C)C(=O)Nc1cccc(-c2ccc(Oc3ccc(F)cc3)cc2)n1 [Compound 11, (S)-N-(6-(4-(4-fluorophenoxy)phenyl)pyridin-2-yl)-2-(3-isopropylureido)-4-methylpentanamide]",0.086 ± 0.02 µM
16,"COCC(=O)N[C@@H](Cc1c[nH]cn1)C(=O)Nc1cccc(-c2ccc(Oc3ccc(F)cc3)cc2)n1 [Compound 35, (S)-N-(6-(4-(4-fluorophenoxy)phenyl)pyridin-2-yl)-3-(1H-imidazol-4-yl)-2-(2-methoxyacetamido)propanamide]",0.13 ± 0.02 µM

# Same assay, conditions: recombinant Nav1.7/HEK293 cells; CoroNa Green sodium dye; veratridine + scorpion venom agonists; ± SEM
row,Structure (SMILES),IC50
1,"Cn1cnc2ccc(C(=O)Nc3cccc(-c4ccc(Oc5ccc(F)cc5)cc4)n3)cc21 [Compound 98, N-(6-(4-(4-fluorophenoxy)phenyl)pyridin-2-yl)-1-methyl-1H-benzo[d]imidazole-6-carboxamide]",> 20 µM
2,"Cn1cnc(S(=O)(=O)Nc2cc([C@H](O)CO)cc(-c3ccc(Oc4ccc(F)cc4)cc3)n2)c1 [Compound 26, (S)-N-(4-(1,2-dihydroxyethyl)-6-(4-(4-fluorophenoxy)phenyl)pyridin-2-yl)-1-methyl-1H-imidazole-4-sulfonamide]",> 20 µM
